Test results: US6350755B1, “Inhibitors of prenyl-protein transferase” (Merck & Co., Inc., priority 2000, dated 2002)

Target: T1, human FPTase (Homo sapiens, UniProt P49354+P49356)
T1 construct: made in house
Test: In vitro inhibition of Ras farnesyl transferase
Assay type: biochemical
Settings: recombinant FPTase; 650 nM Ras-CVLS, 100 nM farnesyl diphosphate; 30° C.; read-out: IC50 for inhibitory activity against human FPTase
Experimental: Transferase Assays. Isoprenyl-protein transferase activity assays are carried out at 30° C. unless noted otherwise. A typical reaction contains (in a final volume of 50 μL): [^3H]farnesyl diphosphate, Ras protein, 50 mM HEPES, pH 7.5, 5 mM MgCl2, 5 mM dithiothreitol, 10 μM ZnCl2, 0.1% polyethyleneglycol (PEG) (15,000-20,000 mw) and isoprenyl-protein transferase. The FPTase employed in the assay is prepared by recombinant expression as described in Omer, C. A., Kral, A. M., Diehl, R. E., Prendergast, G. C., Powers, S., Allen, C. M., Gibbs, J. B. and Kohl, N. E. (1993) Biochemistry 32:5167-5176. After thermally pre-equilibrating the assay mixture in the absence of enzyme, reactions are initiated by the addition of isoprenyl-protein transferase and stopped at timed intervals (typically 15 min) by the addition of 1 M HCl in ethanol (1 mL). The quenched reactions are allowed to stand for 15 m (to complete the precipitation process). After adding 2 mL of 100% ethanol, the reactions are vacuum-filtered through Whatman GF/C filters. Filters are washed four times with 2 mL aliquots of 100% ethanol, mixed with scintillation fluid (10 mL) and then counted in a Beckman LS3801 scintillation counter.
For inhibition studies, assays are run as described above, except inhibitors are prepared as concentrated solutions in 100% dimethyl sulfoxide and then diluted 20-fold into the enzyme assay mixture. […]

Cn1cnc2c1C1c3ccc(C#N)c(c3)Oc3cccc(c3)S(=O)(=O)NCCC(=O)N1CC2 (racemic) [Example 1] showed an IC50 of at most 5 µM.
